Reference: PMC10165273, “Itch receptor MRGPRX4 interacts with the receptor activity–modifying proteins” (The Journal of Biological Chemistry, 2023)
“And” between values parts separate entries of the source, which are not always exact repeats. Equal entries are not always repeated.

Assays:
[1] = system: mock-transfected HEK293T cells; assay: IP1 accumulation, mock-transfected cells; type: cell-based, human; design: IP1 Basal / IP1 span / IP1 Emax / IP1 accumulation, dose-response (Figure 1a) / IP1 accumulation with YM (Figure 1c) / IP1 accumulation: unit not given here; conditions: pcDNA (mock), individual replicates
[2] = molecular target: T1, MRGPRX4 + RAMP1 (Homo sapiens, UniProt Q96LA9); assay: IP1 accumulation, MRGPRX4 coexpressed with RAMP1; type: cell-based; design: key to IP1 Basal / response to agonist, X4:ramp1.I:1 / response to agonist, X4:ramp1.I:2 / response to agonist, X4:ramp1.I:0.25 / response to agonist, X4:ramp1.I:0.5: % IP1; unstimulated mock = 0%, fully stimulated MRGPRX4 = 100%; conditions: Figure 4c-f, agonist 100µM, MRGPRX4 = 100
T1 construct: expressed in transfected cells; host or cells: HEK293T
T1 sequence (Q96LA9 whole entry): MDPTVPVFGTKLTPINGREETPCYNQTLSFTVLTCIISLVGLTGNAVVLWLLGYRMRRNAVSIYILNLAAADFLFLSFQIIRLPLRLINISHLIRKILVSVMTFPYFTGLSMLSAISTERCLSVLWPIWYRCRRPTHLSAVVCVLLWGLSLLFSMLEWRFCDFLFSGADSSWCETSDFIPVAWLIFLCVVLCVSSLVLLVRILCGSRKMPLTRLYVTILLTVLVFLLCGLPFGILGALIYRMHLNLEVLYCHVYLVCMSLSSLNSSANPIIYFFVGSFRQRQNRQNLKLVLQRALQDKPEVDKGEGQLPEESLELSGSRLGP

[3] = molecular target: T2, MRGPRX4 + RAMP3 (Homo sapiens, UniProt Q96LA9); assay: IP1 accumulation, MRGPRX4 coexpressed with RAMP3; type: cell-based; design: key: % IP1; unstimulated mock = 0%, fully stimulated MRGPRX4 = 100%; conditions: Figure 4c-f; agonist 100µM; X4:ramp3 1:2; MRGPRX4 = 100
T2 construct: expressed in transfected cells; host or cells: HEK293T
T2 sequence (Q96LA9 whole entry): as above

## C[C@H](CCC(=O)NCCS(=O)(=O)O)[C@H]1CC[C@H]2[C@@H]3CC[C@@H]4C[C@H](O)CC[C@]4(C)[C@H]3C[C@H](O)[C@]12C [TDCA, Taurodeoxycholic acid]
[1]; log [agonist] (M) -4
  IP1 accumulation, dose-response (Figure 1a): 0.277 and 0.4314 and 0.7552 and 0.05214 and 0.8196 and 0.004346 and 0.07799 and 0.2082 and -0.7055 and 0.02887 and 0.02154 and -0.2702
[1]; log [agonist] (M) -4.95424
  IP1 accumulation, dose-response (Figure 1a): 0.666 and 0.2913 and 0.6803 and 0.05284 and 0.1544 and 0.254 and 0.03541 and -0.4236 and -0.5986 and 0.1648 and -0.7514 and -0.1187
[1]; log [agonist] (M) -5.90849
  IP1 accumulation, dose-response (Figure 1a): 0.6055 and 0.3564 and 0.9177 and 0.421 and 0.4207 and 0.09062 and 0.2243 and -0.1271 and -0.5946 and 0.5044 and 0.1318 and -0.2093
[1]; log [agonist] (M) -6.86273
  IP1 accumulation, dose-response (Figure 1a): 0.7575 and 0.6878 and 1.269 and 0.5282 and 0.9623 and 0.4904 and 0.6445 and 0.2971 and -0.08157 and 1.2983 and 1.581 and 1.374
[2]; X4:ramp1 1:0.25
  response to agonist, X4:ramp1.I:0.25: 91.5401 and 91.7191
[2]; X4:ramp1 1:0.5
  response to agonist, X4:ramp1.I:0.5: 85.1903 and 91.5141
[2]; X4:ramp1 1:1
  response to agonist, X4:ramp1.I:1: 95.31 and 91.9832
[2]; X4:ramp1 1:2
  response to agonist, X4:ramp1.I:2: 89.0717 and 99.7164
[3]
  response to agonist, X4:ramp3.I:2: 51.7108 and 61.6065
